pIC50: −log10 of the molar value. Entries after “also recorded” stand apart in the source; their conditions may differ.
Legend:
Assay type in all cases: cell-based
Hepatitis B Virus (HBV) = test: Antiviral activity against HBV in the HBV producer cell line HepG2 2.2.15 (Dane particle DNA and intracellular replicative intermediates); conditions: for anti-HBV activity: general statement in the description, no concentration given
Experimental: The human HBV producer cell line of HepG2, 2.2 15, described and characterised by Sells et al., PNAS 84:1005, 1987 and J. Virol. […] This cell line was utilised in vitro to identify compounds with anti-HBV activity.
To test compounds for antiviral activity, monolayer cultures were treated with compound, 50-200 µM, for ten days. Supernatant media containing extracellular virion DNA (Dane particles), were harvested on days three, six and ten, treated with proteinase K(1 mg/mL) and sodium dodecyl sulfate (1%), and incubated at 50 °C for one hour. DNA was extracted with equal volumes of phenol followed by chloroform and then precipitated by ammonium acetate and propanol. The DNA precipitate was dissolved and collected on nitrocellulose using the procedure of Schieicher and Schuell (S & S, 10 Optical Ave., Keene, NH 03431, Publication #700, 1987), and treated as described by Southern, J. Mol. Biol. 98:503, 1975. Cells were harvested, and the intracellular DNA was obtained after cell lysis with guanidine isothiocyanate. The intracellular DNA was handled in the same manner as the extracellular DNA. After precipitation by ammonium acetate and propanol, the intracellular DNA precipitate was dissolved, cut by restriction endonuclease, Hind III, applied to agarose gel and then treated as described by Southern to determine the quantity of replicative intermediate forms. The antiviral effect of the drug was determined by measuring at least a 100-fold reduction of the amount of Dane particles extruded into the culture and a similar decrease in the intracellular replicative intermediates.

HIV = test: Activity against HIV infections (general statement, no method given at that place); conditions: general statement in the description
HIV-1 = test: Anti-HIV activity by the method of Averett (J.Virol.Methods 23, 263-276); conditions: against HIV-1; n=7; read-out: average IC₅₀
Experimental: (§1) Anti-HIV activity was determined by the method of Averett, D.R., J.Virol.Methods, 23 263-276 (1989).

HIV-2 = test: as above; conditions: against HIV-2; n=6; read-out: average IC₅₀
Experimental: as §1

Row | Structure (SMILES) | anti-HBV activity (Hepatitis B Virus (HBV)) | activity against HIV infections (HIV) | pIC50 (HIV-1) | pIC50 (HIV-2) | inhibition of HBV (Hepatitis B Virus (HBV); at 100 µM, monolayer cultures treated for ten days) | anti-HBV activity (Hepatitis B Virus (HBV); listed as Compound 41)
1 | CCCOc1nc(N)nc2c1ncn2[C@H]1CC[C@@H](CO)O1 [Compound 9, 2-Amino-6-n-propoxypurine-9-β-D-2′,3′-dideoxyribofuranoside] | surprisingly high |  |  |  |  | 
2 | Nc1nc(NCC2CC2)c2ncn([C@H]3CC[C@@H](CO)O3)c2n1 [Example 42, 2-Amino-6-(cyclopropylmethylamino)purine-9-β-D-2′,3′-dideoxy ribofuranoside] |  | exceptionally potent activity | 4.75 | 4.88 | strong inhibition | surprisingly high; also recorded: exceptionally potent activity
3 | Nc1nc(NC2CC2)c2ncn([C@H]3CC[C@@H](CO)O3)c2n1 [Compound 34, 2-Amino-6-cyclopropylaminopurine-9-β-D-2,′3′-dideoxyribofuranoside] | surprisingly high |  |  |  |  | 

From patent EP0421819A1, “Therapeutic nucleosides” (THE WELLCOME FOUNDATION LIMITED, priority 1989, dated 1991)
